This data set deals with CCRIS mutagenicity, Ames/micronucleus/aberration tests. Briefly: CCRIS mutagenicity studies.
Where [1] appears, read: Test System: AMES SALMONELLA TYPHIMURIUM, Strain/Indicator: TA98, Metabolic Activation: NONE, Method: PREINCUBATION
Where [2] appears, read: Test System: AMES SALMONELLA TYPHIMURIUM, Strain/Indicator: TA100, Metabolic Activation: NONE, Method: PREINCUBATION
Setting [3] is: Test System: AMES SALMONELLA TYPHIMURIUM, Strain/Indicator: TA1535, Metabolic Activation: NONE, Method: PREINCUBATION

Calls of active or inactive are those of the source. How the calls were made is not given here.

Consider `CC(C)(C)C(=O)C1C(=O)c2ccccc2C1=O`, for which the mutagenic call (Test System: AMES SALMONELLA TYPHIMURIUM, Strain/Indicator: TA98, Metabolic Activation: HAMSTER, LIVER, S-9, AROCLOR 1254 (10%), Method: PREINCUBATION) was “inactive; negative”; the mutagenic call under setting [1] is “inactive; negative”; the mutagenic call (Test System: AMES SALMONELLA TYPHIMURIUM, Strain/Indicator: TA98, Metabolic Activation: RAT, LIVER, S-9, AROCLOR 1254 (10%), Method: PREINCUBATION) is “inactive; negative”; the mutagenic call (Test System: AMES SALMONELLA TYPHIMURIUM, Strain/Indicator: TA100, Metabolic Activation: HAMSTER, LIVER, S-9, AROCLOR 1254 (10%), Method: PREINCUBATION) is “inactive; negative”; the mutagenic call under setting [2] was “inactive; negative”; the mutagenic call (Test System: AMES SALMONELLA TYPHIMURIUM, Strain/Indicator: TA100, Metabolic Activation: RAT, LIVER, S-9, AROCLOR 1254 (10%), Method: PREINCUBATION) is “inactive; negative”. Also, the mutagenic call is “inactive; negative” (Test System: AMES SALMONELLA TYPHIMURIUM, Strain/Indicator: TA1535, Metabolic Activation: HAMSTER, LIVER, S-9, AROCLOR 1254 (10%), Method: PREINCUBATION); “inactive; negative” under setting [3]; “inactive; negative” (Test System: AMES SALMONELLA TYPHIMURIUM, Strain/Indicator: TA1535, Metabolic Activation: RAT, LIVER, S-9, AROCLOR 1254 (10%), Method: PREINCUBATION); “inactive; negative” (Test System: AMES SALMONELLA TYPHIMURIUM, Strain/Indicator: TA1537, Metabolic Activation: HAMSTER, LIVER, S-9, AROCLOR 1254 (10%), Method: PREINCUBATION); “inactive; negative” (Test System: AMES SALMONELLA TYPHIMURIUM, Strain/Indicator: TA1537, Metabolic Activation: NONE, Method: PREINCUBATION); “inactive; negative” (Test System: AMES SALMONELLA TYPHIMURIUM, Strain/Indicator: TA1537, Metabolic Activation: RAT, LIVER, S-9, AROCLOR 1254 (10%), Method: PREINCUBATION).
Turning to `O.O=P([O-])([O-])[O-].[Fe+3]`, the mutagenic call reads like this: (Test System: MOUSE LYMPHOMA, Strain/Indicator: L5178Y (TK+/TK-), Metabolic Activation: NONE, Method: SUSPENSION/PLATE) “inactive; negative. reevaluation of results: negative”; (Test System: MOUSE LYMPHOMA, Strain/Indicator: L5178Y (TK+/TK-), Metabolic Activation: RAT, LIVER, S-9, AROCLOR 1254, Method: SUSPENSION/PLATE) “active; positive”; (Test System: Mouse lymphoma, Strain/Indicator: L5178Y (tk+/tk-), Metabolic Activation: Rat, Liver, S-9, Aroclor 1254, Method: Suspension/plate) “active; equivocal (previous evaluation positive)”.
Turning to `COc1ccc(/C=C/c2ccc(N)cc2)cc1`, the mutagenic call reads like this: (Test System: AMES SALMONELLA TYPHIMURIUM, Strain/Indicator: TA98(1,8-DNP6), Metabolic Activation: NONE, Method: STANDARD PLATE) “inactive; negative”; (Test System: AMES SALMONELLA TYPHIMURIUM, Strain/Indicator: TA98(1,8-DNP6), Metabolic Activation: S-9, Method: STANDARD PLATE) “inactive; negative”; (Test System: AMES SALMONELLA TYPHIMURIUM, Strain/Indicator: TA98, Metabolic Activation: NONE, Method: STANDARD PLATE) “inactive; negative”; (Test System: AMES SALMONELLA TYPHIMURIUM, Strain/Indicator: TA98, Metabolic Activation: S-9, Method: STANDARD PLATE) “active; positive”; (Test System: AMES SALMONELLA TYPHIMURIUM, Strain/Indicator: TA100, Metabolic Activation: NONE, Method: STANDARD PLATE) “inactive; negative”; (Test System: AMES SALMONELLA TYPHIMURIUM, Strain/Indicator: TA100, Metabolic Activation: S-9, Method: STANDARD PLATE) “active; positive”.
In the case of `O=[N+]([O-])c1ccc2c3c1ccc1cccc(c13)[C@@H](O)[C@@H]2O`, the mutagenic call under setting [1] was “active; positive”; the mutagenic call (Test System: AMES SALMONELLA TYPHIMURIUM, Strain/Indicator: TA98, Metabolic Activation: RAT, LIVER, S-9, AROCLOR 1254, Method: PREINCUBATION) was “active; positive”; the mutagenic call under setting [2] is “active; positive”; the mutagenic call (Test System: AMES SALMONELLA TYPHIMURIUM, Strain/Indicator: TA100, Metabolic Activation: RAT, LIVER, S-9, AROCLOR 1254, Method: PREINCUBATION) is “active; positive”.
On to `CCCCCCCCC1OC1CCCCCCCC(=O)OCC(CC)CCCC` (configuration not stated), for which the mutagenic call reads like this: (Test System: AMES SALMONELLA TYPHIMURIUM, Strain/Indicator: TA97, Metabolic Activation: HAMSTER, LIVER, S-9, AROCLOR 1254 (10% & 30%), Method: PREINCUBATION) “inactive; negative”; (Test System: AMES SALMONELLA TYPHIMURIUM, Strain/Indicator: TA97, Metabolic Activation: NONE, Method: PREINCUBATION) “inactive; negative”; (Test System: AMES SALMONELLA TYPHIMURIUM, Strain/Indicator: TA97, Metabolic Activation: RAT, LIVER, S-9, AROCLOR 1254 (10% & 30%), Method: PREINCUBATION) “inactive; negative”; (Test System: AMES SALMONELLA TYPHIMURIUM, Strain/Indicator: TA98, Metabolic Activation: HAMSTER, LIVER, S-9, AROCLOR 1254 (10% & 30%), Method: PREINCUBATION) “inactive; negative”; under setting [1], “inactive; negative”; (Test System: AMES SALMONELLA TYPHIMURIUM, Strain/Indicator: TA98, Metabolic Activation: RAT, LIVER, S-9, AROCLOR 1254 (10% & 30%), Method: PREINCUBATION) “inactive; negative”. Also, the mutagenic call reads like this: (Test System: AMES SALMONELLA TYPHIMURIUM, Strain/Indicator: TA100, Metabolic Activation: HAMSTER, LIVER, S-9, AROCLOR 1254 (10% & 30%), Method: PREINCUBATION) “inactive; negative”; under setting [2], “inactive; negative”; (Test System: AMES SALMONELLA TYPHIMURIUM, Strain/Indicator: TA100, Metabolic Activation: RAT, LIVER, S-9, AROCLOR 1254 (10% & 30%), Method: PREINCUBATION) “inactive; negative”; (Test System: AMES SALMONELLA TYPHIMURIUM, Strain/Indicator: TA1535, Metabolic Activation: HAMSTER, LIVER, S-9, AROCLOR 1254 (10% & 30%), Method: PREINCUBATION) “inactive; negative”; under setting [3], “inactive; negative”; (Test System: AMES SALMONELLA TYPHIMURIUM, Strain/Indicator: TA1535, Metabolic Activation: RAT, LIVER, S-9, AROCLOR 1254 (10% & 30%), Method: PREINCUBATION) “inactive; negative”.

The record behind these values is PubChem BioAssay AID1259407 (Chemical Carcinogenesis Research Information System (CCRIS), 2018).
